Laboratory results published in patent publication US9371294B2, “Cycloalkenyl aryl derivatives for CETP inhibitor” (CHONG KUN DANG PHARMACEUTICAL CORP., priority 2011, dated 2016).

Biological target: T1, cholesteryl ester transfer protein (Homo sapiens, UniProt P11597)
T1 construct: As a source of cholesteryl ester transfer protein, plasma from healthy humans was used; from tissue; host or cells: plasma from healthy humans
T1 sequence (P11597 18-493): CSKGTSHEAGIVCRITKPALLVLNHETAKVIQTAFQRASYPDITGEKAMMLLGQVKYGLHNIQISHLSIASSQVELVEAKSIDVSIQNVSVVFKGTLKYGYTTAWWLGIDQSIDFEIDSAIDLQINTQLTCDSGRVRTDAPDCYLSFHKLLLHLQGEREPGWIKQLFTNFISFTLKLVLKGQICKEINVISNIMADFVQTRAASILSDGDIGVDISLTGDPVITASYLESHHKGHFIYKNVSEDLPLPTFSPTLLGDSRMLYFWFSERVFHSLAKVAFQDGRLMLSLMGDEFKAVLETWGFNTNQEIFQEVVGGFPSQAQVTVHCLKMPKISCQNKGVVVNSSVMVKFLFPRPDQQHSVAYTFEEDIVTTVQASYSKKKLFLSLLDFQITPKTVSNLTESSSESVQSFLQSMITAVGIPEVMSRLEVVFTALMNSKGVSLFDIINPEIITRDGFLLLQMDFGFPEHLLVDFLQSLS
Assay: In vitro test for the ability to inhibit cholesteryl ester transfer
Assay type: biochemical
Conditions: [3H]-cholesteryl oleate transfer from rHDL-agarose to LDL; human plasma as CETP source; 37° C.; 16-10000 nM, duplicate
Summary of the method: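 Human plasma served as the CETP source, with human LDL (0.25 mg/ml) as acceptor and agarose-immobilised recombinant HDL carrying [3H]-cholesteryl oleate (0.25 mg/ml) as donor, at 37 °C. Compounds were run in duplicate at 16–10000 nM. Transferred radioactivity in the supernatant was counted by beta detection, and IC50 was fitted from the fraction of label transferred to LDL.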

SMILES | IC50 [nM]
COC(=O)Cc1cc2c(c(C3=C(CN4C(=O)O[C@H](c5cc(C(F)(F)F)cc(C(F)(F)F)c5)[C@@H]4C)CC(C)(C)CC3)c1)OCO2 [Compound 317, methyl 2-(7-(2-(((4S,5R)-5-(3,5-bis(trifluoromethyl)phenyl)-4-methyl-2-oxooxazolidin-3-yl)methyl)-4,4-dimethylcyclohex-1-enyl)benzo[d][1,3]dioxol-5-yl)acetate] | 54
CNC(=O)C(C)(C)Cc1ccc(OC)c(C2=C(CN3C(=O)O[C@H](c4cc(C(F)(F)F)cc(C(F)(F)F)c4)[C@@H]3C)CC(C)(C)CC2)c1 [Compound 321, 3-(3-(2-(((4S,5R)-5-(3,5-bis(trifluoromethyl)phenyl)-4-methyl-2-oxooxazolidin-3-yl)methyl)-4,4-dimethylcyclohex-1-enyl)-4-methoxyphenyl)-N,2,2-trimethylpropanamide] | 104
COC(=O)C1(Cc2ccc(OC)c(C3=C(CN4C(=O)O[C@H](c5cc(C(F)(F)F)cc(C(F)(F)F)c5)[C@@H]4C)CC(C)(C)CC3)c2)CCCC1 [Compound 323, methyl 1-(3-(2-(((4S,5R)-5-(3,5-bis(trifluoromethyl)phenyl)-4-methyl-2-oxooxazolidin-3-yl)methyl)-4,4-dimethylcyclohex-1-enyl)-4-methoxybenzyl)cyclopentanecarboxylate] | 58
COc1ccc(CC2(C(=O)O)CCCC2)cc1C1=C(CN2C(=O)O[C@H](c3cc(C(F)(F)F)cc(C(F)(F)F)c3)[C@@H]2C)CC(C)(C)CC1 [Compound 324, 1-(3-(2-(((4S,5R)-5-(3,5-bis(trifluoromethyl)phenyl)-4-methyl-2-oxooxazolidin-3-yl)methyl)-4,4-dimethylcyclohex-1-enyl)-4-methoxybenzyl)cyclopentanecarboxylic acid] | 97
COc1ccc(-c2nnn(C)n2)cc1C1=C(CN2C(=O)O[C@H](c3cc(C(F)(F)F)cc(C(F)(F)F)c3)[C@@H]2C)CC(C)(C)CC1 [Compound 338, (4S,5R)-5-(3,5-bis(trifluoromethyl)phenyl)-3-((2-(2-methoxy-5-(2-methyl-2H-tetrazol-5-yl)phenyl)-5,5-dimethylcyclohex-1-enyl)methyl)-4-methyloxazolidin-2-one] | 35
COc1ncc(CC(C)(C)C(=O)O)cc1C1=C(CN2C(=O)O[C@H](c3cc(C(F)(F)F)cc(C(F)(F)F)c3)[C@@H]2C)CC(C)(C)CC1 [Compound 350, 3-(5-(2-(((4S,5R)-5-(3,5-bis(trifluoromethyl)phenyl)-4-methyl-2-oxooxazolidin-3-yl)methyl)-4,4-dimethylcyclohex-1-enyl)-6-methoxypyridin-3-yl)-2,2-dimethylpropanoic acid] | 51
COc1ccc(CN2CC[C@H](F)C2)cc1C1=C(CN2C(=O)O[C@H](c3cc(C(F)(F)F)cc(C(F)(F)F)c3)[C@@H]2C)CC(C)(C)CC1 [Compound 367, (4S,5R)-5-(3,5-bis(trifluoromethyl)phenyl)-3-((2-(5-(((S)-3-fluoropyrrolidin-1-yl)methyl)-2-methoxyphenyl)-5,5-dimethylcyclohex-1-enyl)methyl)-4-methyloxazolidin-2-one] | 83

Stronger by IC50, values ahead:

IC50 [nM] | SMILES
30 | COc1ncc(C(F)(F)F)cc1C1=C(CN2C(=O)O[C@H](c3cc(C(F)(F)F)cc(C(F)(F)F)c3)[C@@H]2C)CC(C)(C)CC1 [Compound 316, (4S,5R)-5-(3,5-bis(trifluoromethyl)phenyl)-3-((2-(2-methoxy-5-(trifluoromethyl)pyridin-3-yl)-5,5-dimethylcyclohex-1-enyl)methyl)-4-methyloxazolidin-2-one]
30 | COc1ccc(Cl)cc1C1=C(CN2C(=O)O[C@H](c3cc(C(F)(F)F)cc(C(F)(F)F)c3)[C@@H]2C)CC(C)(C)CC1 [Compound 353, (4S,5R)-5-(3,5-bis(trifluoromethyl)phenyl)-3-((2-(5-chloro-2-methoxyphenyl)-5,5-dimethylcyclohex-1-enyl)methyl)-4-methyloxazolidin-2-one]
20 | COc1ccc(CC2(C(=O)O)CCC2)cc1C1=C(CN2C(=O)O[C@H](c3cc(C(F)(F)F)cc(C(F)(F)F)c3)[C@@H]2C)CC(C)(C)CC1 [Compound 313, 1-(3-(2-(((4S,5R)-5-(3,5-bis(trifluoromethyl)phenyl)-4-methyl-2-oxooxazolidin-3-yl)methyl)-4,4-dimethylcyclohex-1-enyl)-4-methoxybenzyl)cyclobutanecarboxylic acid]
13 | COc1ccc(CC(C)(C)c2nnn(C)n2)cc1C1=C(CN2C(=O)O[C@H](c3cc(C(F)(F)F)cc(C(F)(F)F)c3)[C@@H]2C)CC(C)(C)CC1 [Compound 341, (4S,5R)-5-(3,5-bis(trifluoromethyl)phenyl)-3-((2-(2-methoxy-5-(2-methyl-2-(2-methyl-2H-tetrazol-5-yl)propyl)phenyl)-5,5-dimethylcyclohex-1-enyl)methyl)-4-methyloxazolidin-2-one]
9 | COc1cc(F)c(CC(C)(C)C(N)=O)cc1C1=C(CN2C(=O)O[C@H](c3cc(C(F)(F)F)cc(C(F)(F)F)c3)[C@@H]2C)CC(C)(C)CC1 [Compound 329, 3-(5-(2-(((4S,5R)-5-(3,5-bis(trifluoromethyl)phenyl)-4-methyl-2-oxooxazolidin-3-yl)methyl)-4,4-dimethylcyclohex-1-enyl)-2-fluoro-4-methoxyphenyl)-2,2-dimethylpropanamide]
8 | COc1ccc(CC(C)(C)c2nn[nH]n2)cc1C1=C(CN2C(=O)O[C@H](c3cc(C(F)(F)F)cc(C(F)(F)F)c3)[C@@H]2C)CC(C)(C)CC1 [Compound 340, (4S,5R)-5-(3,5-bis(trifluoromethyl)phenyl)-3-((2-(2-methoxy-5-(2-methyl-2-(2H-tetrazol-5-yl)propyl)phenyl)-5,5-dimethylcyclohex-1-enyl)methyl)-4-methyloxazolidin-2-one]
7 | COC(=O)CC(C)(C)c1ccc(OC)c(C2=C(CN3C(=O)O[C@H](c4cc(C(F)(F)F)cc(C(F)(F)F)c4)[C@@H]3C)CC(C)(C)CC2)c1 [Compound 308, methyl 3-(3-(2-(((4S,5R)-5-(3,5-bis(trifluoromethyl)phenyl)-4-methyl-2-oxooxazolidin-3-yl)methyl)-4,4-dimethylcyclohex-1-enyl)-4-methoxyphenyl)-3-methylbutanoate]
6 | COc1ccc(C(C)C)nc1C1=C(CN2C(=O)O[C@H](c3cc(C(F)(F)F)cc(C(F)(F)F)c3)[C@@H]2C)CC(C)(C)CC1 [Compound 366, (4S,5R)-5-(3,5-bis(trifluoromethyl)phenyl)-3-((2-(6-isopropyl-3-methoxypyridin-2-yl)-5,5-dimethylcyclohex-1-enyl)methyl)-4-methyloxazolidin-2-one]
